According to patent US9363996B2, “Compositions and method for blocking ethylene response in field crops using 3-(cy-clopropyl-l-enyl)-propanoic salt” (Yissum Research Development Company of the Hebrew …, priority 2009, dated 2016):

How the values were obtained:
pKa and ionisation state = type: physicochemical
Description: The IR spectrum (FIG. 60), UV-VIS spectrum (FIG. 61), and potentiometric titration (FIG. 62) are all consistent with the structure given above for WS-CPD. The IR peak of WS-CPD at C1=1773 cm^−1, and the peak of the C═O stretch in the IR and the UV-VIS peak is λmax 206nm.
Thus, under the normal conditions of use, e.g., pH 7.6-7.8, more than 99% of the compound is present in the anion form. […] The XRD pattern was obtained in a Rigaku Ultima sealed tube theta-theta diffractometer operating at a power level of 1.6 kW, with a step size of 0.02°, angular range of 10-60°, and speed of 0.5°/min. Analysis of the XRD pattern was performed using the Jade 8 program (MDI, Inc.). From the diffraction pattern, it appears that the powdered material is not homogeneous, but rather that there appear to be three distinct structural forms present, namely, an amorphous form, a poor quality crystalline form, and a crystalline form. The presence of the amorphous form is indicated by the prominent diffuse peak centered at 2θ˜23°. Superimposed on this broad peak are a number of sharp peaks, indicating the presence of a crystalline form. […] The effective crystallite sizes of the crystalline form were calculated using the Scherrer formula and found to be in the range of 300-700 Å. […] The following volume fractions were measured: amorphous—57.5%; poorly crystalline—39.5%; crystalline—3%. […]

[1] = tested on: young cotton leaf explants; assay: Ethylene-induced petiole abscission of young cotton leaf explants; type: in vivo, cotton (Gossyium hirsutum barbadense L.)
Experimental: (1) Abscission—This is a very sensitive model system for studying the effects of plant hormones. Ethylene induces the process of abscission, while auxin delays it. In the laboratory the experimental system is based on plant organ explants, which include the abscission zone. Abscission is induced by exposure to ethylene and at the termination of the experiment the number of abscised organs, usually either leaf blades or petioles are counted and the fraction of abscission is calculated. In the case of fruit, the decrease in fruit retention force is analyzed. In cotton, when WS-CPD (the ethylene-action antagonist herein disclosed) is tested, the whole plants or explants are pretreated by spraying with the antagonist, dissolved in a phosphate buffer solution (10-20 mM, pH 7.0) including 0.1% commercially available Kinetic™ as surfactant, and left to incubate for a predetermined time, usually between 6 and 24 h. The plants or explants are then further exposed for 24 h to ethylene gas (5 to 20 μL L^−1). The plants or explants are then ventilated and incubated for the required time under controlled conditions. At the end of the experiment the percentage of abscission is determined. (2) Chlorophyll degradation—This is a standard model for studying senescence. Plant material (whole plants, excised leaves or leaf discs) are pretreated. In cotton, tobacco and wheat, when WS-CPD is tested, the whole plants or explants are pretreated by spraying with the antagonist, dissolved in phosphate buffer solution (10-20 mM, pH 7.0) including 0.1% commercially available Kinetic™ surfactant, and left to incubate for a predetermined time, usually between 6 and 241. […] At the end of the experiment a dimethylsulfoxide (DMSO) extract of the plant tissue is prepared, and the chlorophyll content of the extract is determined by spectrophotometric analysis. […] The extent of ethylene-induced epinasty of leaves is determined by measuring the change of the angle between the petiole and the stem shoot or blade. […]

In the case of O=C([O-])CCC1=CC1.[Na+] [WS-CPD, 3-cyclopropyl-1-enyl-propanoic sodium salt], the pKa (pKa and ionisation state; ambient temperature) is reported as over 4.5, the “fraction of the compound present in the anion form” value (pKa and ionisation state; pH 7.6-7.8) is reported as “more than 99%” and the “abscission percentage of explants” value ([1]; WS-CPD 300 μg mL^−1) is reported as “lower than the air control treatment”. The decrease of abscission ([1]; WS-CPD 10 to 30 μg mL^−1, throughout the experiment, ethylene-treated explants) was “about 20%”.
